35 compounds from US11518758B2, “Heteroarylaminopyrimidine amide autophagy inhibitors and methods of use thereof” (Deciphera Pharmaceuticals, LLC, priority 2019, dated 2022) can be followed below.

For one assay, the target named is T1, ULK1 kinase (Homo sapiens, UniProt O75385).
T1 construct: purchased Eurofins 14-959
T1 sequence (O75385 with tags, fused parts or gaps): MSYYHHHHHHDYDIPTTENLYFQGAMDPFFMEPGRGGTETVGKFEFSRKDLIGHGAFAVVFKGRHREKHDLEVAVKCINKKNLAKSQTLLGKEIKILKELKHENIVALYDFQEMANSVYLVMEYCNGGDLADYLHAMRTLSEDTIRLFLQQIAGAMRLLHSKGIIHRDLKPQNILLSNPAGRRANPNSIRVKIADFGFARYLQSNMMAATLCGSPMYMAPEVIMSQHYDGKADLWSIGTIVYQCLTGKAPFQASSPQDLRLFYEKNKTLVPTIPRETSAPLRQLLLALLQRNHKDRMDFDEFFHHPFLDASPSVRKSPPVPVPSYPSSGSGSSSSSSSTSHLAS
Nature of the assay: Biochemical assay for ULK1.2 (coupled pyruvate kinase/lactate dehydrogenase assay). The settings on record: 19 nM ULK1 (Eurofins), myelin basic protein, 1 mM ATP. On the procedure:
Example 174. Biochemical Assay for ULK1.2
Activity of ULK1 kinase was determined spectroscopically using a coupled pyruvate kinase/lactate dehydrogenase assay that continuously monitors the ATP hydrolysis-dependent oxidation of NADH (e.g., Schindler et al. Science (2000) 289: 1938-1942). Assays were conducted in 384-well plates (100 uL final volume) using 19 nM ULK1 (Eurofins CAT #14-959), 0.25 mg/mL myelin basic protein, 1.5 units pyruvate kinase, 2.1 units lactate dehydrogenase, 1 mM phosphoenol pyruvate, 0.28 mM NADH and 1 mM ATP in assay buffer (100 mM Tris, pH 7.5, 15 mM MgCl2, 0.5 mM DTT, 0.1% octyl-glucoside, 0.002% (w/v) BSA, and 0.002% Triton X-100). Inhibition of ULK1 was measured by adding serial diluted test compound (final assay concentration of 1% DMSO). A decrease in absorption at 340 nm was monitored continuously for 6 hours at 30° C. on a multi-mode microplate reader (BioTek). The reaction rate was calculated using the 2-3 h time frame. The reaction rate at each concentration of compound was converted to percent inhibition using controls (i.e. reaction with no test compound and reaction with a known inhibitor) and IC50 values were calculated by fitting a four-parameter sigmoidal curve to the data using Prism (GraphPad software).

Assay [1] deals with phospho-Serine 318 ATG13 (pATG13), ULK kinase substrate, in A549 (KRAS mutant) cells. Nature of the assay: pATG13 levels of mutant KRas A549 cells after treatment with ULK inhibitors in combination with trametinib (ELISA). Format: cell-based, human. The settings on record: with 250 nM trametinib. The method, then: Example 177. Cellular Inhibition of ULK Kinase Substrate ATG13 Protein pATG13 Levels of Mutant KRas A549 Cells after Treatment with ULK Inhibitors in Combination with Trametinib
A549 (KRAS mutant) human lung cancer cells (6,000 cells/well) were added to a 384-well tissue-culture treated plate in 50 μL of pre-warmed DMEM medium supplemented with 10% characterized fetal bovine serum (Invitrogen, Carlsbad, Calif.), 100 units/mL penicillin G, and 100 μg/mL streptomycin and allowed to grow overnight at 37° C., 5% CO2, and 95% humidity. The following day, 10 μL of media containing trametinib or DMSO as a control was added to wells. The final concentration of trametinib in wells was 250 nM. A dose response of a test compound (0.6 μL per well) was added. DMSO (0.6 μL) was added to control wells. The plate was briefly shaken to mix wells and then incubated at 37° C. overnight. The next day, the media was aspirated and cells were washed with Dulbecco's Phosphate Buffered Saline (Gibco). Cells were lysed using MPER lysis buffer (Pierce, Rockford, Ill.) containing Halt Phosphatase and Protease Inhibitors (Pierce, Rockford, Ill.) and Phosphatase inhibitor cocktail 2 (Sigma, St. Louis, Mo.) at 4° C. for 10 minutes with shaking.
Cellular levels of phospho-Serine 318 ATG13 (pATG13) were measured via an ELISA method. Total ATG13 Antibody (Cell Signaling Cat #13273) was used to coat the wells. The plate was incubated at 4° C. overnight and washed with ELISA wash buffer (Biolegend Cat #421601). The wells were then blocked with assay diluent (Biolegend Cat #421203) for 1 hour at room temperature. Plate wells were washed with ELISA wash buffer. Cell lysate was added to wells and incubated at room temperature for 2 hours. Plate wells were washed with ELISA wash buffer. Biotinylated pS318-ATG13 antibody (Rockland Immunochemicals Cat #600-401-C49) was diluted in assay diluent and added to each well and incubated at room temperature for 1 hour. Plate wells were washed with ELISA wash buffer. Streptavidin linked to horseradish peroxidase (Thermo Fisher Cat #21140) was diluted in assay diluent and added to each well and incubated at room temperature for 1 hour. Plate wells were washed with ELISA wash buffer. High sensitivity TMB substrate (Biolegend Cat #421101) was added to each well and incubated at room temperature for 20 minutes. The reaction was stopped with 2N Sulfuric Acid. The plate was analyzed at on a plate reader measuring absorbance at 450 nm and 540 nm (background). Signal was calculated by first subtracting the background absorbance at 540 nm from the absorbance at 450 nm for each well. Next, the background corrected absorbance at 450 nm from blank wells was subtracted from test wells. Data was compared to control wells to determine % ATG13 phosphorylation. GraphPad Prism was used to calculate IC50 values.
On the technique in general: An ELISA detects its analyte on a solid surface through an enzyme-linked reagent.

One may read the IC50 as the midpoint of a concentration-inhibition curve. On to `O=C1CCCCN1CCCNc1nc(Nc2cnn(C3CCN(CC4CC4)CC3)c2)ncc1Cl` [Example 3], for which the IC50 on ULK1 kinase lay in the range of 1 to 25 nM; in assay [1] it was 10 to 100 nM. The like results for `O=C1CCCCN1CCCNc1nc(Nc2cnn(C3CCNCC3)c2)ncc1Br` [Example 9] were, in that order, 1 to 25 nM and more than 600 nM. Consider `CC(C)CN1CC(n2cc(Nc3ncc(C(F)(F)F)c(NCCCN4CCCCC4=O)n3)cn2)C1` [Example 12], for which the IC50 against ULK1 kinase lay within 25 to 100 nM; in assay [1], 300 to 600 nM. On to `[2H]C([2H])([2H])C([2H])(N1CCC(n2cc(Nc3ncc(C(F)(F)F)c(NCCCN4CCCCC4=O)n3)cn2)CC1)C([2H])([2H])[2H]` [Example 13], for which the IC50 is 1 to 25 nM against ULK1 kinase and 100 to 300 nM in assay [1]. Regarding `CC(C)CN1CC(n2cc(Nc3ncc(Br)c(NCCCN4CCCCC4=O)n3)cn2)C1` [Example 17], the IC50 at ULK1 kinase fell in the range of 25 to 100 nM; in assay [1], 100 to 300 nM. In the same order, the values of `Cc1nn(CCCN2CCCC2)cc1Nc1ncc(C(F)(F)F)c(NCCCN2CCCCC2=O)n1` [Example 20] are 25 to 100 nM and 100 to 300 nM.

On to `[2H]C([2H])([2H])N1CCC(n2cc(Nc3ncc(C(F)(F)F)c(NCCCN4CCCCC4=O)n3)c(C)n2)CC1` [Example 31], for which the IC50 on ULK1 kinase fell in the range of 1 to 25 nM; in assay [1], 100 to 300 nM. Turning to `Cc1nn(C2CCNCC2)cc1Nc1ncc(I)c(NCCCN2CCCCC2=O)n1` [Example 48], the results for the IC50 (against ULK1 kinase; in assay [1]) were 1 to 25 nM and more than 600 nM, respectively. Consider `CCN1CCC(n2cc(Nc3ncc(Cl)c(NCCCN4CCCCC4=O)n3)c(C)n2)CC1` [Example 58], for which the IC50 at ULK1 kinase was 100 to 500 nM; in assay [1], 300 to 600 nM. For the compound `CC(C)N1CCC(n2cc(Nc3ncc(C(F)(F)F)c(NCCCN4CCOCC4=O)n3)cn2)CC1` [Example 74], the IC50 is 25 to 100 nM at ULK1 kinase and more than 600 nM in assay [1].

In the case of `CC(C)N1CCC(n2cc(Nc3ncc(C(F)(F)F)c(NCCCN4CCCCCC4=O)n3)cn2)CC1` [Example 88], the IC50 against ULK1 kinase is 1 to 25 nM.

In turn, `Cc1nn(C2CCN(CC(C)C)CC2)cc1Nc1ncc(C(F)(F)F)c(NCCCN2CCCCCC2=O)n1` [Example 89] returned an IC50 at ULK1 kinase of 1 to 25 nM. For the compound `CCN1CCC(n2cc(Nc3ncc(C(F)(F)F)c(NCCCN4CCCCCC4=O)n3)c(C)n2)CC1` [Example 90, 1-(3-((2-((1-(1-ethylpiperidin-4-yl)-3-methyl-1H-pyrazol-4-yl)amino)-5-(trifluoromethyl)pyrimidin-4-yl)amino)propyl)azepan-2-one], the IC50 lay in the range of 1 to 25 nM on ULK1 kinase and 10 to 100 nM in assay [1]. With `Cc1nn(C2CCN(C3CCC3)CC2)cc1Nc1ncc(C(F)(F)F)c(NCCCN2CCCCCC2=O)n1` [Example 92], the IC50 at ULK1 kinase lay in the range of 1 to 25 nM.

As to `Cc1nn(C2CCN(C3CCCC3)CC2)cc1Nc1ncc(C(F)(F)F)c(NCCCN2CCCCCC2=O)n1` [Example 93], at ULK1 kinase, the IC50 fell in the range of 1 to 25 nM. As for `CCC(C)N1CCC(n2cc(Nc3ncc(C(F)(F)F)c(NCCCN4CCCCCC4=O)n3)c(C)n2)CC1` (stereo not drawn) [Example 94], the IC50 against ULK1 kinase lay within 1 to 25 nM; in assay [1], 10 to 100 nM. `Cc1nn([C@@H]2CCN(C(C)C)C2)cc1Nc1ncc(C(F)(F)F)c(NCCCN2CCCCCC2=O)n1` [Example 95]: on ULK1 kinase, the IC50 fell in the range of 1 to 25 nM. `CC(C)CN1CC(n2cc(Nc3ncc(C(F)(F)F)c(NCCCN4CCCCCC4=O)n3)cn2)C1` [Example 97] yielded an IC50 against ULK1 kinase of 1 to 25 nM.

With `[2H]C([2H])([2H])N1CCC(n2cc(Nc3ncc(C(F)(F)F)c(NCCCN4CCCCCC4=O)n3)c(C)n2)CC1` [Example 101], the IC50 against ULK1 kinase lay in the range of 1 to 25 nM. Turning to `Cc1nn(CCCN2CCOCC2)cc1Nc1ncc(C(F)(F)F)c(NCCCN2CCCOCC2=O)n1` [Example 112], the IC50 at ULK1 kinase is 100 to 500 nM. Regarding `Cc1nn(C2CN(CC(C)C)C2)cc1Nc1ncc(C(F)(F)F)c(NCCCN2CCCC2=O)n1` [Example 128], the IC50 at ULK1 kinase fell in the range of 1 to 25 nM.

For the compound `Cc1nn([C@@H]2CCN(C)C2)cc1Nc1ncc(Cl)c(NCCCN2CCOCCC2=O)n1` [Example 134], the IC50 on ULK1 kinase fell in the range of 100 to 500 nM. In turn, `CN1CCN(CCCNc2nc(Nc3cnn(C4CCN(C5CC5)CC4)c3)ncc2Cl)C1=O` [Example 148] came in with an IC50 at ULK1 kinase of 100 to 500 nM. Take `CC1(C)CCC(=O)N1CCCNc1nc(Nc2cnn(C3CCN(C4CC4)CC3)c2)ncc1Cl` [Example 149]: the IC50 against ULK1 kinase was 100 to 500 nM. Turning to `CN1CCC(n2cc(Nc3ncc(C(F)(F)F)c(NCCCN4CCN(C)C4=O)n3)cn2)CC1` [Example 151], at ULK1 kinase, the IC50 lay within 1 to 25 nM.

Consider `Cc1nn(C2CCN(C)CC2)cc1Nc1ncc(C(F)(F)F)c(NCCCN2CCN(C)C2=O)n1` [Example 152], for which the IC50 at ULK1 kinase is 25 to 100 nM; in assay [1], 100 to 300 nM.

`Cc1nn(C2CN(CC(C)C)C2)cc1Nc1ncc(Br)c(NCCCN2CCCC2=O)n1` [Example 154] showed a concentration for half-maximal inhibition (IC50) against ULK1 kinase of more than 500 nM. Regarding `CC1CCN(CCCNc2nc(Nc3cnn(C4CCN(C5CC5)CC4)c3)ncc2Cl)C1=O` (stereo not drawn) [Example 155], the concentration for half-maximal inhibition (IC50) at ULK1 kinase was in the range of 100 to 500 nM.

As to `Cc1nn([C@@H]2CCNC2)cc1Nc1ncc(Cl)c(NCCCN2CCCC2=O)n1` [Example 158], the IC50 on ULK1 kinase was more than 500 nM. Same read-out and setting: as for `Cc1nn([C@@H]2CCN(C)C2)cc1Nc1ncc(Cl)c(NCCCN2CCCC2=O)n1` [Example 160], the figure is more than 500 nM; as for `Cc1nn(C2CN(CC(C)C)C2)cc1Nc1ncc(Cl)c(NCCCN2CCCC2=O)n1` [Example 161], more than 500 nM; as for `Cc1nn(CCN2CCCC2)cc1Nc1ncc(Cl)c(NCCCN2CCCC2=O)n1` [Example 162], more than 500 nM. `Cc1nn(CCN2CCOCC2)cc1Nc1ncc(Cl)c(NCCCN2CCCC2=O)n1` [Example 163] displayed an IC50 on ULK1 kinase of more than 500 nM. On ULK1 kinase, `Cc1nn([C@H]2CCNC2)cc1Nc1ncc(C(F)(F)F)c(NCCCN2CCCC2=O)n1` [Example 167] returned an IC50 of 100 to 500 nM.

Regarding `Cc1nn([C@@H]2CCNC2)cc1Nc1ncc(C(F)(F)F)c(NCCCN2CCCC2=O)n1` [Example 169], the IC50 on ULK1 kinase was 100 to 500 nM.
